The values below come from ChEMBL document CHEMBL1201862, “PubChem BioAssay data set” (2004).

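Method: 48-hour compound exposure of cells in 96-well plates, five concentrations, linear interpolation of endpoints. The concentration for 50% growth inhibition is given as GI50.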 The source made the active and inactive calls. Rule as the data show it: active = GI50 up to about 1.1 µM and inactive = higher. Where a SMILES comes first, the peptide text is derived from it. The star is where a group is joined. Fmoc = O=C(OCC1c2ccccc2-c2ccccc21)*; OtBu = CC(C)(C)O*

Assay in all cases: inhibition of tumour cell growth, NCI panel, 48 h
Experiment [1] deals with SF-295.
In experiment [2] the test system is SN12C.
The subject of experiment [3] is KM12.
Experiment [4] deals with UO-31.
In experiment [5] the test system is MDA-MB-435.
For experiment [6], the system named is DU-145.
Experiment [7] concerns Hs-578T.
Experiment [8] deals with 786-0.
Experiment [9] concerns ACHN.
In experiment [10] the test system is A549.
In experiment [11] the test system is IGROV-1.
The test system of experiment [12] is LOX IMVI.
The test system of experiment [13] is RPMI-8226.
Experiment [14] has as its system TK-10.
Experiment [15] relates to HT-29.
Experiment [16] relates to NCI-H522.
Experiment [17] relates to K562.
Experiment [18] concerns UACC-62.
Experiment [19] has as its system NCI/ADR-RES.
The test system of experiment [20] is HCT-116.

For the molecule `Cc1cc(C(=O)CSC(=S)SC(C)(C)C)ccc1Cl`, the GI50 was 17.7 µM (inactive) in experiment [1]; 18.2 µM (inactive) in experiment [2]; 20 µM (inactive) in [3]; 18.1 µM (inactive) in [4]; 23.7 µM (inactive) in [5]; 26.5 µM (inactive) in [6]. The GI50 in experiment [7] was 25.5 µM (inactive); in experiment [8], 22.3 µM (inactive); in experiment [9], 25 µM (inactive); in [10], 20.9 µM (inactive); in experiment [11], 33.1 µM (inactive); in experiment [12], 19.9 µM (inactive). Moreover, the GI50 is 21.9 µM (inactive) in experiment [13]; 25.2 µM (inactive) in experiment [14]; 25.1 µM (inactive) in experiment [15]; 14.7 µM (inactive) in [16]; 31.2 µM (inactive) in experiment [17]; 16.1 µM (inactive) in experiment [18]. The GI50 in experiment [19] is 19.8 µM (inactive); in [20] it was 18.7 µM (inactive).

`COc1cc(C2C3=C(COC3=O)Oc3cc4c(cc32)OCO4)cc(OC)c1O` (stereo not given): the GI50 is < 0.01 µM (active) in [1]; 0.0364 µM (active) in experiment [2]; < 0.01 µM (active) in experiment [3]; 0.0592 µM (active) in experiment [4]; < 0.01 µM (active) in [5]; 0.0157 µM (active) in [6]. For the same molecule, the GI50 in experiment [7] is 0.0119 µM (active); in experiment [8] it was < 0.0152 µM (active); in experiment [9], < 0.0119 µM (active); in [10] it was < 0.0141 µM (active); in experiment [11], < 0.0121 µM (active); in [12], < 0.0112 µM (active). Further, the GI50 was < 0.0232 µM (active) in experiment [13]; 0.589 µM (active) in experiment [14]; < 0.0147 µM (active) in [15]; < 0.01 µM (active) in experiment [16]; < 0.01 µM (active) in experiment [17]; < 0.01 µM (active) in experiment [18]. Besides, the GI50 in [19] was < 0.01 µM (active); in experiment [20], 0.0103 µM (active).

As to `CCOC(=O)c1cccc(NC(=O)CBr)c1`, the GI50 in experiment [1] is 4.36 µM (inactive); in experiment [2], 0.458 µM (active); in experiment [3] it was 1.79 µM (inactive); in experiment [4], 0.776 µM (active); in experiment [5], 1.1 µM (active); in experiment [6] it was 1.82 µM (inactive). The GI50 is 2.72 µM (inactive) in experiment [7]; 0.22 µM (active) in experiment [8]; 1.56 µM (inactive) in [9]; 2.09 µM (inactive) in experiment [10]; 0.959 µM (active) in experiment [11]; 0.0904 µM (active) in [12]. The GI50 in experiment [13] is 1.07 µM (active); in experiment [14], 1.67 µM (inactive); in [15], 1.69 µM (inactive); in experiment [16], 0.0164 µM (active); in [17], 0.362 µM (active); in experiment [18], 1.42 µM (inactive). Further, the GI50 is 2.04 µM (inactive) in [19] and 0.664 µM (active) in experiment [20].

As to `N#C[C@@H](c1nc2ccccc2s1)c1ncccc1[N+](=O)[O-]`, the GI50 is 4.1 µM (inactive) in experiment [1]; 4.82 µM (inactive) in [2]; 10.6 µM (inactive) in [3]; 3.99 µM (inactive) in experiment [4]; 13.4 µM (inactive) in experiment [5]; 6.34 µM (inactive) in [6]. The GI50 in experiment [7] is 5.55 µM (inactive); in [8] it was 6.19 µM (inactive); in [9] it was 6.07 µM (inactive); in [10] it was 4.4 µM (inactive); in experiment [11] it was 5.07 µM (inactive); in experiment [12], 4.97 µM (inactive). Besides, the GI50 is 4.9 µM (inactive) in experiment [13]; 4.79 µM (inactive) in experiment [14]; 8.3 µM (inactive) in experiment [15]; 2.51 µM (inactive) in experiment [16]; > 10 µM (inactive) in [17]; 3.21 µM (inactive) in experiment [18]. For the same molecule, the GI50 in experiment [19] was 6.46 µM (inactive); in experiment [20], 5.6 µM (inactive).

In the case of `COc1cc(/C=C(\C)[N+](=O)[O-])cc(OC)c1`, the GI50 in [1] is 25.8 µM (inactive); in [2] it was 17.1 µM (inactive); in experiment [3], 19.3 µM (inactive); in [4] it was 15.6 µM (inactive); in experiment [5], 14.9 µM (inactive); in experiment [6], 18.7 µM (inactive). In addition, the GI50 in experiment [7] is 26.9 µM (inactive); in experiment [8], 4.59 µM (inactive); in [9], 16.4 µM (inactive); in [10], 28.3 µM (inactive); in experiment [11] it was 6.46 µM (inactive); in [12], 3.08 µM (inactive). The GI50 is 3.12 µM (inactive) in experiment [13]; 11.8 µM (inactive) in experiment [14]; 20 µM (inactive) in experiment [15]; 1.87 µM (inactive) in [16]; 2.69 µM (inactive) in [17]; 14.6 µM (inactive) in experiment [18]. In addition, the figures for the GI50 in [19] and in experiment [20] were 20.2 µM (inactive) and 16.1 µM (inactive), respectively.

For the molecule `CCNC(=S)NNC(=O)c1ccccc1Nc1ccccc1C(=O)NNC(=S)NCC`, the GI50 in experiment [1], in [2], in experiment [3], in [4], in experiment [5] and in [6] was > 100 µM (inactive) each time. For the same molecule, the GI50 in experiment [7], in [8], in experiment [9], in [10], in [11] and in [12] was > 100 µM (inactive) each time. Moreover, the GI50 in [13], in [14], in [15], in [16], in experiment [17] and in experiment [18] was > 100 µM (inactive) in each case. The GI50 in experiment [19] and in experiment [20] was > 100 µM (inactive) each time.

For the molecule `CCCCOC(=O)C(O)Cc1ccoc1` (stereo not given), the GI50 in experiment [1], in [2], in experiment [3], in experiment [4], in [5] and in experiment [6] was > 100 µM (inactive) in each case. Besides, the GI50 in experiment [7], in experiment [8], in [9], in experiment [10], in experiment [11] and in [12] was > 100 µM (inactive) each time. For the same molecule, the GI50 in experiment [13], in experiment [14], in experiment [15], in experiment [16], in experiment [17] and in experiment [18] was > 100 µM (inactive) throughout. The GI50 in [19] and in experiment [20] was > 100 µM (inactive) throughout.

For `CC(C)C(NC(=O)OCC1c2ccccc2-c2ccccc21)C(=O)NC(CCC(=O)OC(C)(C)C)C(=O)OC(C)(C)C` (stereo not given) (Fmoc-Val-Glu(OtBu)-OtBu; configuration not given here), the GI50 in [1] was 17.2 µM (inactive); in experiment [2], > 31.6 µM (inactive); in experiment [3], > 29.2 µM (inactive); in experiment [4], > 56.2 µM (inactive); in experiment [5], > 100 µM (inactive); in experiment [6] it was > 100 µM (inactive). For the same molecule, the GI50 in experiment [7] is > 100 µM (inactive); in experiment [8] it was > 100 µM (inactive); in experiment [9], > 100 µM (inactive); in [10], 60 µM (inactive); in experiment [11], > 100 µM (inactive); in experiment [12], 8.38 µM (inactive). Besides, the GI50 in [13] is 2.92 µM (inactive); in experiment [14], > 100 µM (inactive); in [15], > 100 µM (inactive); in experiment [16] it was > 45.1 µM (inactive); in experiment [17], > 20.5 µM (inactive); in experiment [18], > 76.9 µM (inactive). The GI50 is 27 µM (inactive) in experiment [19] and 4.42 µM (inactive) in experiment [20].
